Data reported in patent US8680012B2, “4-phenyl-pyrane-3,5-diones,4-phenyl-thiopyrane-3,6-diones and cyclohexanetriones as novel herbicides” (Syngenta Crop Protection LLC, priority 2006, dated 2014).

Assays:
Type in all cases: in vivo
[1] = test system: Alopecurus myosuroides (ALOMY); test: Example B pre-emergence herbicidal activity, glasshouse pot test; settings: 312 h, evaluated after 13 days, read-out: Pre-emergence activity ALOMY (100=total damage to plant; 0=no damage to plant); for pest or weed control at 1000 g/ha: rate 1000 g/ha; for pest or weed control at 250 g/ha: rate 250 g/ha
How it was run: (§1)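 Spray application in 50:50 acetone/water with 0.5% Tween 20, pre-emergence at 1 day or post-emergence at 8 days after sowing. Evaluated visually at 13 days on a 0–100 damage scale.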

[2] = test system: Amaranthus retroflexus (AMARE); test: as above; settings: 312 h, evaluated after 13 days, read-out: Pre-emergence activity AMARE (100=total damage to plant; 0=no damage to plant); for pest or weed control at 1000 g/ha: rate 1000 g/ha; for pest or weed control at 250 g/ha: rate 250 g/ha
How it was run: as §1

Avena fatua (AVEFA) [3] = test: as above; settings: 312 h, evaluated after 13 days, read-out: Pre-emergence activity AVEFA (100=total damage to plant; 0=no damage to plant); for pest or weed control at 1000 g/ha: rate 1000 g/ha; for pest or weed control at 250 g/ha: rate 250 g/ha
How it was run: as §1

[4] = test system: Echinochloa crus-galli (ECHCG); test: as above; settings: 312 h, evaluated after 13 days, read-out: Pre-emergence activity ECHCG (100=total damage to plant; 0=no damage to plant); for pest or weed control at 1000 g/ha: rate 1000 g/ha; for pest or weed control at 250 g/ha: rate 250 g/ha
How it was run: as §1

Setaria faberi (SETFA) [5] = test: as above; settings: 312 h, evaluated after 13 days, read-out: Pre-emergence activity SETFA (100=total damage to plant; 0=no damage to plant); for pest or weed control at 1000 g/ha: rate 1000 g/ha; for pest or weed control at 250 g/ha: rate 250 g/ha
How it was run: as §1

Solanum nigrum (SOLNI) [6] = test: as above; settings: 312 h, evaluated after 13 days, read-out: Pre-emergence activity SOLNI (100=total damage to plant; 0=no damage to plant); for pest or weed control at 1000 g/ha: rate 1000 g/ha; for pest or weed control at 250 g/ha: rate 250 g/ha
How it was run: as §1

[7] = test system: Alopecurus myosuroides (ALOMY); test: Example B post-emergence herbicidal activity, glasshouse pot test; settings: 312 h, evaluated after 13 days, read-out: Post-emergence activity ALOMY (100=total damage to plant; 0=no damage to plant); for pest or weed control at 1000 g/ha: rate 1000 g/ha; for pest or weed control at 250 g/ha: rate 250 g/ha
How it was run: as §1

[8] = test system: Amaranthus retroflexus (AMARE); test: as above; settings: 312 h, evaluated after 13 days, read-out: Post-emergence activity AMARE (100=total damage to plant; 0=no damage to plant); for pest or weed control at 1000 g/ha: rate 1000 g/ha; for pest or weed control at 250 g/ha: rate 250 g/ha
How it was run: as §1

Avena fatua (AVEFA) [9] = test: as above; settings: 312 h, evaluated after 13 days, read-out: Post-emergence activity AVEFA (100=total damage to plant; 0=no damage to plant); for pest or weed control at 1000 g/ha: rate 1000 g/ha; for pest or weed control at 250 g/ha: rate 250 g/ha
How it was run: as §1

[10] = test system: Echinochloa crus-galli (ECHCG); test: as above; settings: 312 h, evaluated after 13 days, read-out: Post-emergence activity ECHCG (100=total damage to plant; 0=no damage to plant); for pest or weed control at 1000 g/ha: rate 1000 g/ha; for pest or weed control at 250 g/ha: rate 250 g/ha
How it was run: as §1

Setaria faberi (SETFA) [11] = test: as above; settings: 312 h, evaluated after 13 days, read-out: Post-emergence activity SETFA (100=total damage to plant; 0=no damage to plant); for pest or weed control at 1000 g/ha: rate 1000 g/ha; for pest or weed control at 250 g/ha: rate 250 g/ha
How it was run: as §1

Solanum nigrum (SOLNI) [12] = test: as above; settings: 312 h, evaluated after 13 days, read-out: Post-emergence activity SOLNI (100=total damage to plant; 0=no damage to plant); for pest or weed control at 1000 g/ha: rate 1000 g/ha; for pest or weed control at 250 g/ha: rate 250 g/ha
How it was run: as §1

Row | SMILES | pest or weed control at 1000 g/ha [1] [%] | pest or weed control at 1000 g/ha [2] [%] | pest or weed control at 1000 g/ha (Avena fatua (AVEFA) [3]) [%] | pest or weed control at 1000 g/ha [4] [%] | pest or weed control at 1000 g/ha (Setaria faberi (SETFA) [5]) [%] | pest or weed control at 1000 g/ha (Solanum nigrum (SOLNI) [6]) [%] | pest or weed control at 1000 g/ha [7] [%] | pest or weed control at 1000 g/ha [8] [%] | pest or weed control at 1000 g/ha (Avena fatua (AVEFA) [9]) [%] | pest or weed control at 1000 g/ha [10] [%] | pest or weed control at 1000 g/ha (Setaria faberi (SETFA) [11]) [%] | pest or weed control at 1000 g/ha (Solanum nigrum (SOLNI) [12]) [%] | pest or weed control at 250 g/ha [1] [%] | pest or weed control at 250 g/ha [2] [%] | pest or weed control at 250 g/ha (Avena fatua (AVEFA) [3]) [%] | pest or weed control at 250 g/ha [4] [%] | pest or weed control at 250 g/ha (Setaria faberi (SETFA) [5]) [%] | pest or weed control at 250 g/ha (Solanum nigrum (SOLNI) [6]) [%] | pest or weed control at 250 g/ha [7] [%] | pest or weed control at 250 g/ha [8] [%] | also measured
1 | Cc1ccc(-c2ccc(Cl)nc2)cc1C1=C(O)C(C)(C)OC(C)(C)C1=O [Compound A-54] | 70 | 20 | 80 | 100 | 90 | 0 | 80 | 0 | 50 | 90 | 80 | 0 |  |  |  |  |  |  |  |  | 
2 | Cc1ccc(-c2ccc(Cl)nc2C)cc1C1=C(O)C(C)(C)OC(C)(C)C1=O [Compound A-56] | 10 | 0 | 40 | 30 | 0 | 20 | 80 | 20 | 50 | 80 | 80 | 20 |  |  |  |  |  |  |  |  | 
3 | Cc1ccc(-c2ccc(Cl)nc2Cl)cc1C1=C(O)C(C)(C)OC(C)(C)C1=O [Compound A-58] | 80 | 20 | 60 | 100 | 100 | 20 | 90 | 70 | 90 | 100 | 90 | 30 |  |  |  |  |  |  |  |  | 
4 | CCc1ccc(-c2ccc(Cl)c(C)c2)cc1C1=C(O)C(C)(C)C(=O)C(C)(C)C1=O [Compound B-2] | 0 | 90 | 20 | 70 | 0 | 30 | 0 | 70 | 0 | 80 | 20 | 40 |  |  |  |  |  |  |  |  | 
5 | Cc1ccc(-c2ccc(Cl)cc2)cc1C1=C(O)C(C)(C)C(=O)C(C)(C)C1=O [Compound B-4] | 0 | 0 | 0 | 30 | 0 | 0 | 80 | 70 | 30 | 90 | 90 | 40 |  |  |  |  |  |  |  |  | 
6 | Cc1ccc(-c2ccc(Cl)nc2C)cc1C1=C(O)C(C)(C)C(=O)C(C)(C)C1=O [Compound B-6] | 0 | 100 | 0 | 0 | 0 | 90 | 20 | 0 | 0 | 50 | 30 | 0 |  |  |  |  |  |  |  |  | 
7 | Cc1ccc(-c2ccc(Cl)cc2Cl)cc1C1=C(O)C(C)(C)C(=O)C(C)(C)C1=O [Compound B-7] | 0 | 0 | 0 | 50 | 60 | 20 | 20 | 70 | 20 | 60 | 70 | 70 |  |  |  |  |  |  |  |  | 
8 | CCc1ccc(-c2ccc(Cl)nc2)cc1C1=C(O)C(C)(C)C(=O)C(C)(C)C1=O [Compound B-9] |  |  |  |  |  |  |  |  |  |  |  |  | 0 | 0 | 0 | 0 | 0 | 0 | 40 | 40 | pest or weed control at 250 g/ha (Avena fatua (AVEFA) [9]): 0%; pest or weed control at 250 g/ha [10]: 80%; pest or weed control at 250 g/ha (Setaria faberi (SETFA) [11]): 70%; pest or weed control at 250 g/ha (Solanum nigrum (SOLNI) [12]): 20%
9 | CCc1ccc(-c2ccc(Cl)c(C(F)(F)F)c2)cc1C1=C(O)C(C)(C)C(=O)C(C)(C)C1=O [Compound B-10] |  |  |  |  |  |  |  |  |  |  |  |  | 0 | 0 | 0 | 30 | 50 | 20 | 40 | 40 | pest or weed control at 250 g/ha (Avena fatua (AVEFA) [9]): 20%; pest or weed control at 250 g/ha [10]: 90%; pest or weed control at 250 g/ha (Setaria faberi (SETFA) [11]): 80%; pest or weed control at 250 g/ha (Solanum nigrum (SOLNI) [12]): 0%
10 | CCc1ccc(-c2ccc(Cl)c(F)c2)cc1C1=C(O)C(C)(C)C(=O)C(C)(C)C1=O [Compound B-12] |  |  |  |  |  |  |  |  |  |  |  |  | 0 | 0 | 0 | 30 | 50 | 0 | 60 | 30 | pest or weed control at 250 g/ha (Avena fatua (AVEFA) [9]): 0%; pest or weed control at 250 g/ha [10]: 100%; pest or weed control at 250 g/ha (Setaria faberi (SETFA) [11]): 90%; pest or weed control at 250 g/ha (Solanum nigrum (SOLNI) [12]): 0%
11 | CCc1ccc(-c2ccc(Cl)cc2Cl)cc1C1=C(O)C(C)(C)C(=O)C(C)(C)C1=O [Compound B-13] |  |  |  |  |  |  |  |  |  |  |  |  | 0 | 0 | 20 | 30 | 20 | 0 | 0 | 20 | pest or weed control at 250 g/ha (Avena fatua (AVEFA) [9]): 30%; pest or weed control at 250 g/ha [10]: 80%; pest or weed control at 250 g/ha (Setaria faberi (SETFA) [11]): 90%; pest or weed control at 250 g/ha (Solanum nigrum (SOLNI) [12]): 0%
12 | Cc1ccc(-c2ccc(Cl)cc2F)cc1C1=C(O)C(C)(C)C(=O)C(C)(C)C1=O [Compound B-18] |  |  |  |  |  |  |  |  |  |  |  |  | 40 | 0 | 0 | 0 | 20 | 0 | 10 | 0 | pest or weed control at 250 g/ha (Avena fatua (AVEFA) [9]): 0%; pest or weed control at 250 g/ha [10]: 60%; pest or weed control at 250 g/ha (Setaria faberi (SETFA) [11]): 70%; pest or weed control at 250 g/ha (Solanum nigrum (SOLNI) [12]): 0%
